# Measurements reported in publication PMC10914731, “Homo-BacPROTAC-induced degradation of ClpC1 as a strategy against drug-resistant mycobacteria” (Nature Communications, 2024).
# Several values for one entry are separate records, joined by “and”; a condition that tells them apart may be missing. Equal entries are not always repeated. Where two headings read alike, the source gives them in different places. Where a SMILES comes first, the peptide text is derived from it. [ ]: non-standard residue; d: D form. NMeLeu(5-OH,4R) = CN[C@@H](C[C@@H](C)CO)C(=O)O; Phe(βR-OMe) = CO[C@H](c1ccccc1)[C@H](N)C(=O)O; Trp(1-Me) = Cn1cc(C[C@H](N)C(=O)O)c2ccccc21; NMeL = CN[C@@H](CC(C)C)C(=O)O; Pra = C#CC[C@H](N)C(=O)O
# What was measured:
# [1] = Hepatocyte stability, mice; format: in vitro ADME; details: for Hepatocyte Mice: clearance in hepatocytes
# Summary of the method: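 1 µM cpd (DMSO <0.05% final), cryopreserved hepatocytes ~1e6 cells/mL, 50% serum, pH 7.4, 37 °C/5–10% CO2; up to 6 h, 6 timepoints; ACN quench, HPLC-MS/MS; t1/2 → CL via well-stirred model, % Qh.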
# Pseudomonas aeruginosa = test: MIC ESKAPES panel, Pseudomonas aeruginosa; format: cell-based
# Experimental: Minimum inhibitory concentration (MIC) against ESKAPES panel of Gram positive and Gram negative pathogens (Enterococcus faecium, Staphylococcus aureus, Klebsiella pneumoniae, Acinetobacter baumannii, Pseudomonas aeruginosa, Enterobacter cloacae and Salmonella typhimurium [ESKAPES panel]) were determined at the FNDR by the standard broth dilution method [CLSI, M100]. […] Mueller Hinton broth (MHB) medium was used to grow ESKAPES panel strains. The individual cultures were added as 200 μL (inoculum of 3–7 × 10^5 cfu/ml) to the respective assay plates in each well to all columns, except the media control (200 μL of medium). […] The assay plates were incubated at 37 °C, and the results were noted on the 2nd day as turbidometric readout. The clear wells indicated inhibition of growth, while the turbid wells indicated uninhibited growth.
# Mtb # 11291 = test: microbe, parasite or virus in culture; format: cell-based; details: for MIC: read-out: MIC Mtb # 11291
# [2] = tested on: Mtb H37Rv in THP-1 macrophages; test: Intracellular MIC assay in THP-1 macrophages; format: cell-based, Mycobacterium tuberculosis; parameters: Emax: unit not given here
# [3] = biological target: endogenous ClpC1 in Msm #607 cells (Mycolicibacterium smegmatis, UniProt A0R574); format: cell-based, M. smegmatis
# Sequence of endogenous ClpC1 in Msm #607 cells (A0R574 whole entry): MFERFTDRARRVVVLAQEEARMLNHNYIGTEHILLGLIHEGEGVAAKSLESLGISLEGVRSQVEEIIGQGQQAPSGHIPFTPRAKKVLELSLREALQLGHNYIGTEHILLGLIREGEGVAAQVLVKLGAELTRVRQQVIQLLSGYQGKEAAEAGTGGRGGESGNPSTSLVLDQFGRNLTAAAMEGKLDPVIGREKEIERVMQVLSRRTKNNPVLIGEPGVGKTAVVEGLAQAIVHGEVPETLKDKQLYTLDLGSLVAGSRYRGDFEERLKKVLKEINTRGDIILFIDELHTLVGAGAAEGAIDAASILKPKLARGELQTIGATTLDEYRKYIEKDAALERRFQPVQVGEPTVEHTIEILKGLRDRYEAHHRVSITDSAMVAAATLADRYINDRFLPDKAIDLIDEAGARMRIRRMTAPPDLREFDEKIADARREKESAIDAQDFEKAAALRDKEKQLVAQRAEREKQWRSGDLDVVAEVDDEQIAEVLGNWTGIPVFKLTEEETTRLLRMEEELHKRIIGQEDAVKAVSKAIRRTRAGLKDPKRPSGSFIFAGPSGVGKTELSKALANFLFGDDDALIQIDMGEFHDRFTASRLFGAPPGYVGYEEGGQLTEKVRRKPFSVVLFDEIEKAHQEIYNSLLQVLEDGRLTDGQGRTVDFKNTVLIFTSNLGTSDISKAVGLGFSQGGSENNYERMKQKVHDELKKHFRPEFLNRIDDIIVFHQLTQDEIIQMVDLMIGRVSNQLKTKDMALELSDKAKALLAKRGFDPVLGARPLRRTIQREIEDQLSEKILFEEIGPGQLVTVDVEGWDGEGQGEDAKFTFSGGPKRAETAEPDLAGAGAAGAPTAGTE
# Msm #607 = test: Minimum bactericidal concentration (MBC), Msm #607; format: cell-based, Mycobacterium smegmatis; details: Mycolicibacterium smegmatis
# in vivo = format: in vivo, BALB/cAnNCrl mice
# Experimental: The in-life experimental procedures were conducted in strict compliance with German and European animal welfare legislation in an AAALAC-accredited facility. Male BALB/cAnNCrl mice (Charles River Laboratories Research Models and Services, 97633 Sulzfeld, Germany) were used. Animals were 9 weeks old at dosing with a body weight of 21.6–24.3 g. Animals were delivered free of pathogens according to FELASA recommendations with a health certificate provided by the breeder. Upon receipt, the state of health and sex was checked. Animals acclimatized for at least 5 days before the commencement of the in-life phase. During acclimation, animals were group-housed in individually ventilated cages, on birch wood granulate bedding with species-specific enrichment (nesting material, mouse igloo, gnawing wood). During experimental conduct, animals were housed in conventional cages with elevated grid floors. Grid floor was used to avoid contamination with test item material excreted via urine and feces and subsequent reuptake during fur grooming. No bedding and enrichment were provided except a cage divider, which can be used as a shelter. Animals always had unlimited access to food and water and received a pelleted, total pathogen-free maintenance diet and tap drinking water, sterilized by filter.
# In case of incomplete dissolution, the formulation was filtered at 40 °C (non-pyrogenic sterile-R filter, 0.2 µm). All formulations were stirred warm until administration. Actual test item content was determined bioanalytically.
# Male BALB/cAnNCrl mice (n = 3 per test item and administration route) received a bolus dose of the formulated test item(s) (1 mg/kg iv, 30 mg/kg po) at t = 0 h, and whole blood samples were collected subsequently (35 µl at 0.1 (iv) / 0.25 (po), 0.5, 1, 2, 4, 6 h; 600 µl at sacrifice after 24 h). Animals were euthanized by exsanguination in deep isoflurane anesthesia. Whole blood samples were immediately stored on ice at about 4 °C. Plasma was separated by centrifugation at approximately 10,000 × g for 5 m at +4 °C. Centrifugation of each blood sample was started within 10 m after collection. A single aliquot of at least 15 µL of plasma was prepared and immediately stored at −20 ± 5 °C.
# Sample proteins were precipitated with ACN (1 + 12, v/v) containing internal standard, and supernatants analyzed by quantitative UPLC-MS/MS: Phenomenex Luna Omega C18, 2.1 × 50 mm, 1.6 µm, 40 °C, gradient between 10% - 90% ACN with 0.1% formic acid. LogD determination: Lipophilicity of the test items, expressed as chromLogD7.5, was assessed by measuring their chromatographic retention times on C18-material. The chromatographic retention versus logD7.5 values of a series of thirteen n-alkan-2-ones (2-butanone – 2-hexadecanone) served as lipophilicity calibration.
# [4] = Pseudomonas aeruginosa, Gram negative, n = 3 well replicates
# [5] = Pseudomonas aeruginosa, Gram-Negative Bacteria, replicates 1-3
# [6] = ATCC607, read-out: MBC (from Set 3) Msm ATCC 607
# [7] = read-out: MBC Msm #607, individual example
# [8] = iv bolus, individual animals 1-3
# [9] = iv bolus, mice, Mean, BLOQ <1.00 nmol/l
# [10] = male, BALB/cAnNCrl, mouse, in vivo, iv, 0.0677 umol/kg, iv bolus, individual animals 1-3
# [11] = male, BALB/cAnNCrl, mouse, in vivo, iv, 0.0677 umol/kg, iv bolus, mice, Mean
structure (smiles),measurement,setting,value
"C#CC[C@@H]1NC(=O)[C@H](CC(C)C)N(C)C(=O)[C@H](C(C)C)NC(=O)[C@H]([C@H](OC)c2ccccc2)NC(=O)[C@H](C)NC(=O)[C@H](C[C@@H](C)CO)N(C)C(=O)[C@H](Cc2cn(C)c3ccccc23)NC1=O [Compound 10] (cyclo(A[Phe(βR-OMe)]V[NMeL][Pra][Trp(1-Me)][NMeLeu(5-OH,4R)]))",Hepatocyte Stability Mouse QH,[1]; Mouse,64.420%
same,Hepatocyte Mice,[1],64 %Qh
same,MIC,"Pseudomonas aeruginosa; Gram-Negative Bacteria, replicates 1-3",>50 µM
same,MIC,Pseudomonas aeruginosa; [4],> 50 µM
same,MIC,Pseudomonas aeruginosa; [5],> 45.6 µg/mL
same,MIC Mtb # 11291,Mtb # 11291; single well replicates,0.36 µg/mL
same,MIC,Mtb # 11291; single well replicates,0.39 µM
same,Emax,[2],0.19
same,ClpC1 peak area,"[3]; 100 µM, Figure 5c, well replicates of 3 experiments",412581 and 373241 and 483939 and 462615 and 61275.5 and 294306 and 484139 and 455205 and 481589
same,intracellular degradation of ClpC1,"[3]; Msm #607, 24 h, result in words",did not induce degradation of ClpC1
same,MBC,Msm #607; [6],> 45.6 µg/mL and > 50 µM
same,MBC,Msm #607; [7],> 50 µM and > 45.7 µg/mL
"COc1c(N2C[C@@H]3CCCN[C@@H]3C2)c(F)cc2c(=O)c(C(=O)O)cn(C3CC3)c12 [Moxifloxacin, reference compound]",MIC,Pseudomonas aeruginosa; [4],2.5 µM
same,MIC,Pseudomonas aeruginosa; [5],2.49 µM and 1 µg/mL
same,MIC,"Mtb # 11291; Mycobacterium tuberculosis, mean, n = 2 well replicates",0.2 µM
same,MIC,"Mtb # 11291; Mycobacterium tuberculosis, single well replicates",0.24 µM
same,MIC Mtb # 11291,Mtb # 11291; single well replicates,0.10 µg/mL
same,MIC,Mtb # 11291; single well replicates,0.24 µM
same,MBC,Msm #607; [6],0.13 µg/mL and 0.31 µM
same,MBC,Msm #607; [7],0.3 µM and 0.1 µg/mL
CO[C@H](c1ccccc1)[C@@H]1NC(=O)[C@H](C)NC(=O)[C@H](C[C@@H](C)CO)N(C)C(=O)[C@H](Cc2cn(Cc3cn(CCOCCn4cc(Cn5cc(C[C@@H]6NC(=O)[C@H](C(C)C)NC(=O)[C@H](CC(C)C)N(C)C(=O)[C@H](C(C)C)NC(=O)[C@H]([C@H](OC)c7ccccc7)NC(=O)[C@H](C)NC(=O)[C@H](C[C@@H](C)CO)N(C)C6=O)c6ccccc65)nn4)nn3)c3ccccc23)NC(=O)[C@H](C(C)C)NC(=O)[C@H](CC(C)C)N(C)C(=O)[C@H](C(C)C)NC1=O [Compound 6],Hepatocyte Mice,[1],15 %Qh
same,Cmax,"in vivo; dose-normalized, mice, 1 mg kg-1 iv bolus",1820 nM/(nmol kg-1)
same,AUC0-inf/Dose,in vivo; [8],3260 h nM/(nmol kg-1) and 5150 h nM/(nmol kg-1) and 5870 h nM/(nmol kg-1)
same,AUC0-t/Dose,in vivo; [8],2600 h nM/(nmol kg-1) and 5020 h nM/(nmol kg-1) and 5730 h nM/(nmol kg-1)
same,CL,in vivo; [8],3.2 mL/min/kg and 2.8 mL/min/kg
same,CL PL QH,in vivo; [8],5.7% and 3.6% and 3.2%
same,MRT,in vivo; [8],5.1 h and 5.3 h
same,Plasma concentration 0.1 h,in vivo; [8],128 nM and 127 nM and 114 nM
same,Plasma concentration 0.5 h,in vivo; [8],47.9 nM and 51.6 nM and 58 nM
same,Plasma concentration 1 h,in vivo; [8],44.8 nM and 45.0 nM and 44.5 nM
same,Plasma concentration 2 h,in vivo; [8],32.5 nM and 36.4 nM and 39.6 nM
same,Plasma concentration 4 h,in vivo; [8],17.3 nM and 22.2 nM and 13.8 nM
same,Vss,in vivo; [8],1.0 L/kg and 0.9 L/kg
same,t1/2,in vivo; [8],4.8 h and 4.9 h
same,Plasma concentration 6 h,"in vivo; iv bolus, individual animals 1-3, BLOQ <1.00 nmol/l",11.6 nM and 14.7 nM and 20.6 nM
same,Cmax,"in vivo; iv bolus, individual animals 1-3, read-out: Cmax",127 nM and 114 nM
same,AUC0-inf/Dose,"in vivo; iv bolus, mice, Mean",4760 h nM/(nmol kg-1)
same,AUC0-t/Dose,"in vivo; iv bolus, mice, Mean",4450 h nM/(nmol kg-1)
same,CL PL QH,"in vivo; iv bolus, mice, Mean",4.1%
same,Plasma concentration 0.1 h,"in vivo; iv bolus, mice, Mean",123 nM
same,Plasma concentration 0.5 h,"in vivo; iv bolus, mice, Mean",52.5 nM
same,Plasma concentration 1 h,"in vivo; iv bolus, mice, Mean",44.8 nM
same,Plasma concentration 2 h,"in vivo; iv bolus, mice, Mean",36.2 nM
same,Plasma concentration 4 h,"in vivo; iv bolus, mice, Mean",17.8 nM
same,Plasma concentration 6 h,in vivo; [9],15.6 nM
same,Plasma concentration 24 h,in vivo; [9],1.3 nM
same,tmax,"in vivo; male, BALB/cAnNCrl, mouse, in vivo, 0.0677 umol/kg, iv bolus, individual animals 1-3",6 min
same,clearance,in vivo; [10],5.1 mL/min/kg
same,half-life,in vivo; [10],2.7 h
same,Cmax,"in vivo; male, BALB/cAnNCrl, mouse, in vivo, iv, 0.0677 umol/kg, iv bolus, individual animals 1-3, read-out: Cmax",128 nM
same,MRT,"in vivo; male, BALB/cAnNCrl, mouse, in vivo, iv, 0.0677 umol/kg, iv bolus, individual animals 1-3, read-out: MRT",3.6 h
same,Vd,"in vivo; male, BALB/cAnNCrl, mouse, in vivo, iv, 0.0677 umol/kg, iv bolus, individual animals 1-3, read-out: Vss",1.1 L/kg
same,clearance,in vivo; [11],3.7 mL/min/kg
same,half-life,in vivo; [11],4.1 h
same,Cmax,"in vivo; male, BALB/cAnNCrl, mouse, in vivo, iv, 0.0677 umol/kg, iv bolus, mice, Mean, read-out: Cmax",123 nM
same,MRT,"in vivo; male, BALB/cAnNCrl, mouse, in vivo, iv, 0.0677 umol/kg, iv bolus, mice, Mean, read-out: MRT",4.7 h
same,Vd,"in vivo; male, BALB/cAnNCrl, mouse, in vivo, iv, 0.0677 umol/kg, iv bolus, mice, Mean, read-out: Vss",1 L/kg
same,Vd,"in vivo; male, BALB/cAnNCrl, mouse, in vivo, iv, 1 mg/kg, mice, 1 mg kg-1 iv bolus, read-out: VSS",0.95 L/kg
same,clearance,"in vivo; male, BALB/cAnNCrl, mouse, in vivo, iv, 1 mg/kg, plasma clearance, mice, 1 mg kg-1 iv bolus",3.73 mL/min/kg
same,half-life,"in vivo; male, BALB/cAnNCrl, mouse, in vivo, iv, 1 mg/kg, plasma, mice, 1 mg kg-1 iv bolus",3.33 h
